Drawing on paper PMC6983068, “Identifying Ortholog Selective Fragment Molecules for Bacterial Glutaredoxins by NMR and Affinity Enhancement by Modification with an Acrylamide Warhead” (Molecules, 2019), this text covers Kd for 7 compounds.

One experiment has as its target T1, PaGRX (Pseudomonas aeruginosa, UniProt Q9HU55).
T1 construct: gene grx
Description: biochemical.

In a further experiment the target is T2, hGRX1 (Homo sapiens, UniProt P35754).
T2 sequence (P35754 2-106): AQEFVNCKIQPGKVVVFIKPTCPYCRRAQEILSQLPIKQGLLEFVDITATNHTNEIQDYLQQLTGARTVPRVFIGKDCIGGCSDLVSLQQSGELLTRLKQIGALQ
It is filed as binding. The conditions noted are these: read-out: hGRX1 Kd ± S.D.

For a further experiment, the target named is T3, BrmGRX (Brucella melitensis, UniProt Q8YJA2).
T3 construct: gene BMEI0184
Description: biochemical. It is filed as binding.

The structures appear in SMILES notation.

T1 sequence (Q9HU55 whole entry): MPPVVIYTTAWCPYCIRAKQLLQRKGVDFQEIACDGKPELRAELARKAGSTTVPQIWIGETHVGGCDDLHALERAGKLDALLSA
T3 sequence (Q8YJA2 1-92): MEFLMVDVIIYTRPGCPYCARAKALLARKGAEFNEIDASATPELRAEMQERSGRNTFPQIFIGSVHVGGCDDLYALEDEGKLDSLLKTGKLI

The Kd is the equilibrium constant for the complex coming apart. For `Cc1cc2ncc(C(=O)O)c(C)n2n1` [RK208], the Kd at PaGRX was determined as 0.56 ± 0.08 mM; on hGRX1, 1.61 ± 0.19 mM; at BrmGRX it was 2.28 ± 0.3 mM.
`O=C(O)c1ccc(-n2cccc2)cc1` [RK207]: the Kd at PaGRX is 1.9 ± 0.34 mM; on hGRX1, 2.45 ± 0.52 mM.
The matching figures for `Cn1nc(C(=O)O)cc1-c1ccccc1` [RK246]: 8.48 ± 2.06 mM and 5.22 ± 1.16 mM.
For `O=C(O)c1ccc(-n2cccn2)cc1` [RK192], the Kd on PaGRX was found to be 5.26 ± 1.12 mM; on hGRX1 it was 5.05 ± 1.27 mM; at BrmGRX it was 5.56 ± 0.51 mM.
For `O=C(O)c1cc(-c2ccco2)[nH]n1` [RK104], in that order: 0.72 ± 0.16 mM, 2.89 ± 0.47 mM and 0.9 ± 0.15 mM.
The matching figures for `CN1CCN(C)c2cc(CN)ccc21` [RK395]: 0.51 ± 0.37 mM, 1.86 ± 1.15 mM and 5.49 ± 3.22 mM.
With `Cn1nc(-c2ccco2)cc1C(=O)O` [RK144], the dissociation constant Kd on PaGRX turned out to be 1.92 ± 0.42 mM; at hGRX1, 5.42 ± 0.9 mM; on BrmGRX it was 5.24 ± 0.92 mM.
